Data reported in US7485651B2, “Compounds with activity on muscarinic receptors” (Acadia Pharmaceuticals, Inc., priority 1998, dated 2009).

Experiments:
Type in all cases: cell-based
m3 receptor = target: T1, m3 receptor (Homo sapiens, UniProt P20309); assay: R-SAT / NIH 3T3 cells transfected with m3 muscarinic receptor
T1 construct: expressed in transfected cells; host or cells: NIH 3T3 (ATCC CRL 1658)
Source text: (§1) A particularly convenient functional assay system is the receptor selection and amplification assay disclosed in U.S. Pat. No. 5,707,798 describing a method of screening for bioactive compounds by utilizing the ability of cells transfected with receptor DNA, e.g. coding for the different muscarinic subtypes, to amplify in the presence of a ligand of the receptor. Cell amplification is detected as increased levels of a marker also expressed by the cells.
(§2) Transfection of cells with muscarinic receptor DNAs (general procedure) NIH 3T3 cells (available from the American Type Culture Collection as ATCC CRL 1658) were grown at 37° C. in a humidified atmosphere (5% CO2) incubator in Dulbecco's modified Eagle's medium (DMEM) supplemented with 4.5 g/l glucose, 4 mM glutamine, 50 units/m1 penicillin, 50 units/m1 streptomycin (available from Advanced Biotechnologies, Inc., Gaithersburg, Md.) and 10% calf serum (available from Sigma, St. Louis, […].). The cells were treated with trypsin-EDTA, spun down and plated at 2×10^6 per 15 cm dish in 20 m1 of DMEM containing 10% calf serum.
(§3) The m1-m5 muscarinic receptor subtypes were cloned substantially as described by Bonner et al., Science 237, 1987, p. 527, and Bonner et al., Neuron 1, 1988, p. 403. For the m2 and m4 receptors, the cells were co-transfected with DNA encoding a chimera between the Gq protein and the five carboxy-terminal amino acids of the Gi protein (the Gq-i5 construct is described by Conklin et al., Nature 363, 1993, p.274).
(§4) On day one, the cells were transfected using the Superfect transfection reagent (available from Qiagen, Valencia, Calif.) in accordance with the manufacturer's instructions. Receptor DNA, β-gal DNA (pSI-β-galactosidase available from Promega, Madison, Wis.), chimeric Gq-i5 DNA for the m2 and m4 receptor subtype assays, and salmon sperm DNA (available from Sigma, St. Louis, […].) as filler to a total of 20 μg DNA was added per plate. Prior to addition to the plates, 60 μl Superfect was added to the DNA and mixed thoroughly by pipetting up and down several times. The mixture was incubated at room temperature for 10-15 minutes. The media were aspirated, and 12 ml fresh DMEM containing 10% calf serum and 50 units/m1 penicillin/streptomycin was added to the plates. The DNA-Superfect solution was mixed once more with a pipette and added to the plate which was swirled to distribute the DNA mixture evenly over the surface. The cells were incubated overnight at 37° C. and 5% CO2. After incubation, the media were aspirated and the plates were rinsed once with a 15 m1 volume of Hank's Buffered Saline. The plates were swirled to ensure thorough rinsing. 20 m1 fresh DMEM supplemented with 10% calf serum and 50 units/m1 penicillin/streptomycin was added to the plates. The cells were incubated for 24-48 hours until the plates were 100% confluent.
(§5) Assay of NIH 3T3 cells transfected with muscarinic receptor subtypes (general procedure) DMEM containing 2% Cyto-SF3 was heated at 37° C. in a water bath under sterile conditions. Sterile working stock solutions of test compounds to be assayed were prepared by diluting the compounds in DMEM to 8× the final concentration for testing. The compound (carbachol) to be included in the assay as a positive control was also diluted in DMEM to 8× the final concentration. 50 μL of the DMEM containing 2% Cyto-SF3 was added to each well of 96-well microtiter plates under sterile conditions. Then, 16 of compound solutions were added to the top wells of the plates, and dilution of the solutions was performed by taking 16 μl of the compound solutions from the top wells and pipetting them into the next row of wells. This procedure was repeated with each subsequent row of wells, except that 50 μl medium alone was added to the baseline control wells (the wells that contain medium and cells, but not test compounds) and plate control wells (wells containing medium, but not test compounds and cells). […]

m5 receptor = target: T2, m5 receptor (Homo sapiens, UniProt P08912); assay: R-SAT / NIH 3T3 cells transfected with m5 muscarinic receptor
T2 construct: expressed in transfected cells; host or cells: NIH 3T3 (ATCC CRL 1658)
T2 sequence (P08912 1-532): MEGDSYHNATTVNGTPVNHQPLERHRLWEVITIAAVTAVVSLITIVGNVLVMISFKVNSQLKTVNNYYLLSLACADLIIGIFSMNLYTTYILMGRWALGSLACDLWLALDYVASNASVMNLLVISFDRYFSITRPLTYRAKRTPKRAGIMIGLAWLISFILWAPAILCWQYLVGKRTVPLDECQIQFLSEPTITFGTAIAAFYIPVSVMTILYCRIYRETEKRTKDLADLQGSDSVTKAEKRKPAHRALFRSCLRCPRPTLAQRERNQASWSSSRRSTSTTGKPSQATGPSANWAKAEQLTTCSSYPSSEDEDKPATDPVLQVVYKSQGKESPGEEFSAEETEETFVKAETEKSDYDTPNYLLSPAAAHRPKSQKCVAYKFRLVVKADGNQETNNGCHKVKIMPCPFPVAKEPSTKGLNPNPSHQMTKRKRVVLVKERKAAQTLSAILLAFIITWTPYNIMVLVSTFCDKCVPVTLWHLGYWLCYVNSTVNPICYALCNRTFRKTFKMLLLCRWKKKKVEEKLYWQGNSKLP
Source text: as §1, §2, §3, §4, §5

[1] = target: T3, α-adrenergic receptor subtype 2A (Homo sapiens, UniProt P08913); assay: Test against other receptors: α-adrenergic 2A
T3 sequence (P08913 1-465): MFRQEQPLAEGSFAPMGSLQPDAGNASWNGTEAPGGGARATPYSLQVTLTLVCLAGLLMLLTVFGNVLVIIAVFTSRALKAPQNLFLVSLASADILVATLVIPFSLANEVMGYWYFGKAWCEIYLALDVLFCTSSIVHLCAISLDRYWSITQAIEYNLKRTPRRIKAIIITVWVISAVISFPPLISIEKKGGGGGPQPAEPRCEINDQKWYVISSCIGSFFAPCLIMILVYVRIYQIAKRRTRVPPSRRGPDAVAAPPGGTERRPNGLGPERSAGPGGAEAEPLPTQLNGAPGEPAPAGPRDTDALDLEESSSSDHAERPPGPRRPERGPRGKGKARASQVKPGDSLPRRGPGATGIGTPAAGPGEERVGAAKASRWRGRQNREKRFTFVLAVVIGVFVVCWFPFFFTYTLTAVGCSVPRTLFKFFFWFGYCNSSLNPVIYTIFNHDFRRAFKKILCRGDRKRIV

T1 sequence (P20309 whole entry): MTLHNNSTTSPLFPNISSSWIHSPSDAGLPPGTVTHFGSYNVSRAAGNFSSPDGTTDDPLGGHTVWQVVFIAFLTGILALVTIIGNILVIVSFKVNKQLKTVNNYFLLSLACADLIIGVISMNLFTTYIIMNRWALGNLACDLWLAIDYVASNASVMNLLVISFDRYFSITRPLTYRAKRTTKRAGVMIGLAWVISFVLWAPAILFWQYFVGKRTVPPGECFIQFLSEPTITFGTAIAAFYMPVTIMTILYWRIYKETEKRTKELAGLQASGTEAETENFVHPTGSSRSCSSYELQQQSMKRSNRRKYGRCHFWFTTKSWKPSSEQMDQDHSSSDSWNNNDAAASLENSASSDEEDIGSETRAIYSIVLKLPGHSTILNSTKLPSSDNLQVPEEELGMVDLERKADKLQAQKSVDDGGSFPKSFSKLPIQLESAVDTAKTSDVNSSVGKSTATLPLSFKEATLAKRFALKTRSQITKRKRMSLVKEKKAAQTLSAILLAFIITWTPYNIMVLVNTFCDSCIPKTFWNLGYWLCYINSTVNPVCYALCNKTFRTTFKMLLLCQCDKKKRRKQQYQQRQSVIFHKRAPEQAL

CCCCC1CCN(CCCC(=O)c2ccccc2C)CC1 [Compound A, 4-n-Butyl-1-[4-(2-methylphenyl)-4-oxo-1-butyl]piperidine]
agonist activity at the m3 receptor (m3 receptor): only activated the m1 receptor subtype | Emax at 1.5 µM (m3 receptor; NIH3T3, m3, compound at 1.5 μM, maximum = response to 10 μM carbachol, read-out: Cellular response as a percentage of the maximum response of the cells): 7% | antagonism of carbachol-induced responses (m3 receptor; m3): not an antagonist | agonist activity at the m5 receptor (m5 receptor): only activated the m1 receptor subtype | Emax at 1.5 µM (m5 receptor; NIH3T3, m5, compound at 1.5 μM, maximum = response to 10 μM carbachol, read-out: Cellular response as a percentage of the maximum response of the cells): 3% | antagonism of carbachol-induced responses (m5 receptor; m5): not an antagonist | agonist activity [1]: no significant activity | inhibition of receptor responses (antagonist experiments) [1]: did not inhibit
